Measurements: patent publication EP0981626B1, “FUNGICIDAL TEST METHOD” (Bayer CropScience Limited, priority 1997, dated 1998)

Assays:
Phytophthora infestans = type: in vivo; conditions: 500 ppm; late tomato or potato blight; score = % control class
[1] = test system: recombinant IPMDH (3-isopropylmalate dehydrogenase); experiment: biochemical screen for inhibitors of recombinant IPMDH (spectrometric NADH assay at 340 nm); parameters: species or system Septoria nodorum; conditions: buffer as control; for % inhibition at 3.3 ppm: first test; for % inhibition at 3.3 ppm, Repeat: repeat test
Method: The recombinant IPMDH was used in a biochemical screen for inhibitors of 3-isopropylmalate dehydrogenase as follows. The assay was originally described by Parsons in 1969 (Purification and properties of β-IPMD, Parsons et al., Journal of Biological Chemistry, 244, (4), 996-1003. It is an spectrometric assay, based on the reduction of coenzyme […] measured at 340 nm. Prior to any assay the rate of production of a given unit of β-NADH was determined and only the rate of the initial linear fraction of the progress curve was taken for the evaluated assay. The reagents for the assay are: the enzyme 3-Isopropyl malate dehydrogenase, KH2PO4, MnCl2, β-NAD (nicotinamide adenine dinucleotide) and the substrate isopropylmalate. […] The mixture is incubated for two minutes at 25°C and the reaction is started by adding 140µl buffer containing the substrate IPM, KH2PO4, MnCl2, β-NAD at pH8. The rate of the increase β-NADH is monitored each minute and five data points are collected. The inhibition of the potential inhibitors are expressed in %-inhibition using buffer as a control. […] Tabulated below are a selection of compounds which gave a significant inhibition of recombinant IPMDH. These compounds were also able to inhibit Septoria nodorum in vitro. […] Approximately 10^5 conidia of Septoria nodorum BS171 were inoculated to Cz medium with the compounds and the effect on fungal growth assessed after six days.

Erysiphe cichoracearum = experiment: in vivo fungicidal activity on test plants, visually estimated infection; conditions: 500 ppm
Plasmopara viticola = experiment: as above
Septoria nodorum (BS171) = experiment: in vitro inhibition of fungal growth in Cz medium; type: cell-based; conditions: Parastagonospora nodorum, 144 h; tested at 10, 25, 50, 75, 100, 150, 200 and 250 ppm in Cz medium; growth assessed after six days
Source text: Tabulated below are a selection of compounds which gave a significant inhibition of recombinant IPMDH. These compounds were also able to inhibit Septoria nodorum in vitro. […] Approximately 10^5 conidia of Septoria nodorum BS171 were inoculated to Cz medium with the compounds and the effect on fungal growth assessed after six days.

[2] = cucumber powdery mildew, score = % control class
[3] = 125 ppm, vine downy mildew, score = % control class

Row | Compound | Score (Phytophthora infestans) | % inhibition at 3.3 ppm [1] | % inhibition at 3.3 ppm, Repeat [1] | Score (Erysiphe cichoracearum; [2]) | Score (Plasmopara viticola; [3]) | MIC (Septoria nodorum (BS171)) | Score (Plasmopara viticola; 500 ppm, vine downy mildew, score = % control class) | Score (Erysiphe cichoracearum) | Score (Plasmopara viticola; 125 ppm)
1 | O=C(Oc1ccccc1)n1c(C(F)(F)F)nc2cc(Br)c(Cl)cc21 [Compound 1, phenyl 5-bromo-6-chloro-2-trifluoromethyl-benzimidazole-1-carboxylate] | 7 (85-94) | 33% | 56% | 6 (75-84) | 5 (@125 ppm) (65-74) | 100 to 150 µg/mL | – | – | –
2 | O=C(Oc1ccccc1)n1c(C(F)(F)F)nc2c(Br)c(Br)c(Br)cc21 [Compound 2, phenyl 4,5,6-tribromo-2-trifluoromethyl-benzimidazole-1-carboxylate] | 6 (75-84) | 33% | 42% | 7 (85-94) | 6 (@125 ppm) (75-84) | > 250 µg/mL | – | – | –
3 | CC(C)CCC(C)OC(=O)n1c(C(F)(F)F)nc2c(Br)c(Br)c(Br)cc21 (centres unmarked) [Compound 3, 1,4-dimethylpentyl 4,5,6-tribromo-2-trifluoromethyl-benzimidazole-1-carboxylate] | – | 57% | 20% | 8 (95-100) | – | 100 to 150 µg/mL | 8 (95-100) | – | –
4 | N#Cc1sc2c(=O)c3ccccc3c(=O)c=2sc1C#N [Compound 4, 5,10-dioxo-5,10-dihydronaphtho-[2,3-b][1,4]dithiine-2,3-dicarbonitrile] | 7 (85-94) | 41% | 66% | – | – | 0 to 10 µg/mL | – | 0 (key: 0-20; 1: 20-34; 2: 35-44; 3: 45-54; 55-64; 65-74; 6: 75-84; 7: 85-94; 8: 95-100) | 7 (@125 ppm) (key: 0-20; 1: 20-34; 2: 35-44; 3: 45-54; 55-64; 65-74; 6: 75-84; 7: 85-94; 8: 95-100)
